# How the values were obtained:
# MKN-45 = assay: Antiproliferative activity against human MKN45 cells at 10 uM incubated for 72 hrs by MTT assay relative to control; format: functional; details: MKN-45, 72 h
# HT-29 = assay: Antiproliferative activity against human HT-29 cells at 10 uM incubated for 72 hrs by MTT assay relative to control; format: functional; details: HT-29, 72 h
# Homo sapiens = species: Homo sapiens; assay: Selectivity index, ratio of IC50 for purified recombinant VEGFR2 kinase domain (unknown origin) to IC50 for purified recombinant MET kinase domain (unknown origin)
# [1] = biological target: Vascular endothelial growth factor receptor 2 (Homo sapiens, UniProt P35968); assay: Inhibition of purified recombinant VEGFR2 kinase domain (unknown origin) using biotin as substrate preincubated for 5 mins followed by substrate addition and measured after 30 to 60 mins in presence of ATP by HTRF assay
# Chain of Vascular endothelial growth factor receptor 2 (P35968 whole entry, the tested form may be a part): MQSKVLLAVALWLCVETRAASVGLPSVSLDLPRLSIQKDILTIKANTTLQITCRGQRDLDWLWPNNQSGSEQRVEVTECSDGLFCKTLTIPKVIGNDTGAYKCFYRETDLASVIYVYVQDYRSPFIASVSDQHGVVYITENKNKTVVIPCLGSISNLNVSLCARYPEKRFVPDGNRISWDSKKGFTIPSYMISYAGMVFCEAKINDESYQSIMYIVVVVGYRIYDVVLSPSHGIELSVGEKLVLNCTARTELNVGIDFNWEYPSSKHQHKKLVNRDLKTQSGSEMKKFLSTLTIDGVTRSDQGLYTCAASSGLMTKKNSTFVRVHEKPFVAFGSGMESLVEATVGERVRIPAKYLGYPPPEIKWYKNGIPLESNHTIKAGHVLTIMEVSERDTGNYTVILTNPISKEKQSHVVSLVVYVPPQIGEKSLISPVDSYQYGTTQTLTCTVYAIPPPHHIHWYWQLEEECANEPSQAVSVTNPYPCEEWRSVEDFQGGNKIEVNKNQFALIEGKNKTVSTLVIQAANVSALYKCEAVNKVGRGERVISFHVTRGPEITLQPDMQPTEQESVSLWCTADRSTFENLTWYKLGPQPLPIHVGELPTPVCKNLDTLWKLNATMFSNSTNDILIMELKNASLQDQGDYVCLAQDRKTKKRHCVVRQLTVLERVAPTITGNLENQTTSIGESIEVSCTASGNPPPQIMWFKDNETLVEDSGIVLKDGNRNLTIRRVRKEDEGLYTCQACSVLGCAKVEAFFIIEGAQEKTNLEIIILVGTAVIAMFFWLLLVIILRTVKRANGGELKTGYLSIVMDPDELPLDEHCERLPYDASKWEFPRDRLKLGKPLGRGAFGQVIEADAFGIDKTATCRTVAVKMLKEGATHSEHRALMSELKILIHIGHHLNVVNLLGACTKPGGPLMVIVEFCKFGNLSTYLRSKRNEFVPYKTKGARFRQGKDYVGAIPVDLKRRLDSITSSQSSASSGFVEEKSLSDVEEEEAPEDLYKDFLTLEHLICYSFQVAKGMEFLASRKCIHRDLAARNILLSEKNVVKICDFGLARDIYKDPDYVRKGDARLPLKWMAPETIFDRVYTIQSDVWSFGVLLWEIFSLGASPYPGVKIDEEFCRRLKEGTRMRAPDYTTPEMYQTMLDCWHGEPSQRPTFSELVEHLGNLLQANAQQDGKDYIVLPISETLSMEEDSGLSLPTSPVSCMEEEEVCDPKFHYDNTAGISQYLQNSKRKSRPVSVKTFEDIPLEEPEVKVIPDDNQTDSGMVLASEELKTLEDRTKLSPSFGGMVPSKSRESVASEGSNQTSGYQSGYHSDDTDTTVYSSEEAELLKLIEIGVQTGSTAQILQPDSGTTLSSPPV
# [2] = biological target: Hepatocyte growth factor receptor (Homo sapiens, UniProt P08581); assay: Inhibition of purified recombinant MET kinase domain (unknown origin) using biotin as substrate preincubated for 5 mins followed by substrate addition and measured after 30 to 60 mins in presence of ATP by HTRF assay
# Chain of Hepatocyte growth factor receptor (P08581 whole entry, the tested form may be a part): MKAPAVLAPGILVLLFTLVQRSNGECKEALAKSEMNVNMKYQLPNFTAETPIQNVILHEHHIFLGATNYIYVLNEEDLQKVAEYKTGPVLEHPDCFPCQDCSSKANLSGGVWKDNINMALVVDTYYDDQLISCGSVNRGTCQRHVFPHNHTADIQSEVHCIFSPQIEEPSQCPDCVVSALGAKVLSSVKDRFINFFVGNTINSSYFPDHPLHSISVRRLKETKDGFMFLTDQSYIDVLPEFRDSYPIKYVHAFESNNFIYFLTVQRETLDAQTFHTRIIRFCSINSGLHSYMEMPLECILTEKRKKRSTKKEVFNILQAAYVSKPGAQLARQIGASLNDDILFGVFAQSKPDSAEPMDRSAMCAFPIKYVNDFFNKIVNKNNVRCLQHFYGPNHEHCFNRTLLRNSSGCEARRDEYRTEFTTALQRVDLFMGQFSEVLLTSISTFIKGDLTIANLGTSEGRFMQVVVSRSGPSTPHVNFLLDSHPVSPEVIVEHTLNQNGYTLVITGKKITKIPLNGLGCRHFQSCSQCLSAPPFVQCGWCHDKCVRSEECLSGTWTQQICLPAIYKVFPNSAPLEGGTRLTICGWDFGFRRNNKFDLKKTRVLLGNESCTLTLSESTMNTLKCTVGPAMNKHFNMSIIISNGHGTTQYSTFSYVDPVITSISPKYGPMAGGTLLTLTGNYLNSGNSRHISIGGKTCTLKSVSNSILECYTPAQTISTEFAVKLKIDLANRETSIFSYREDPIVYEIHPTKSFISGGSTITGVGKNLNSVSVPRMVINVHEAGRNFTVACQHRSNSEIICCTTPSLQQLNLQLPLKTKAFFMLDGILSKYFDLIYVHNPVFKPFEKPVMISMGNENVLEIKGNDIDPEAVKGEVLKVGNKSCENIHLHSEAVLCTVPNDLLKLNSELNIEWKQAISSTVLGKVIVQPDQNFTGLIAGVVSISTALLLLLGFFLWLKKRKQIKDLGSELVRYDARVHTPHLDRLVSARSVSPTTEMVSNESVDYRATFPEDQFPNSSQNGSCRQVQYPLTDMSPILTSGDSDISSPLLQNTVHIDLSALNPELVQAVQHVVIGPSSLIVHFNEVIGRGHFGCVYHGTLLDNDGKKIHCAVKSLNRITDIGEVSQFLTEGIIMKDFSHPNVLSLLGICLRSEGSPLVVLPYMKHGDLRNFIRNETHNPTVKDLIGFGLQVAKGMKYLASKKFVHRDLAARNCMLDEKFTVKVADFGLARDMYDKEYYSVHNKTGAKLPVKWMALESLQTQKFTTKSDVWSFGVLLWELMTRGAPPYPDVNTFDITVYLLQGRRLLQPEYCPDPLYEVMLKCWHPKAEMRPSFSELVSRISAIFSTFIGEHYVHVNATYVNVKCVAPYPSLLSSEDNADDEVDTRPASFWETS
# [3] = Antiproliferative activity against human NIH-H460 cells at 10 uM incubated for 72 hrs by MTT assay relative to control; format: functional; details: NIH-H460, 72 h
# in vitro = details: human, liver microsomes
# [4] = Mean residence time in Sprague-Dawley rat at 5.0 mg/kg, ig measured for 15 min to 72 hrs by LC-MS/MS analysis; format: ADME, organism-based; details: in vivo, po
# [5] = AUC (0 to infinity) in Sprague-Dawley rat at 1.0 mg/kg, iv measured for 5 min to 72 hrs by LC-MS/MS analysis; format: ADME, organism-based; parameters: dose 1 mg/kg, time infinity, route intravenous; details: in vivo
# [6] = Half life in Sprague-Dawley rat at 1.0 mg/kg, iv measured for 5 min to 72 hrs by LC-MS/MS analysis; format: ADME, organism-based; details: in vivo
# [7] = Tmax in Sprague-Dawley rat at 5.0 mg/kg, ig measured for 15 min to 72 hrs by LC-MS/MS analysis; format: ADME, organism-based; details: in vivo, po
# [8] = Half life in Sprague-Dawley rat at 5.0 mg/kg, ig measured for 15 min to 72 hrs by LC-MS/MS analysis; format: ADME, organism-based; details: in vivo, po
# [9] = Volume of distribution in Sprague-Dawley rat at 5.0 mg/kg, ig measured for 15 min to 72 hrs by LC-MS/MS analysis; format: ADME, organism-based; details: in vivo, po
# [10] = Clearance in Sprague-Dawley rat at 1.0 mg/kg, iv measured for 5 min to 72 hrs by LC-MS/MS analysis; format: ADME, organism-based; details: in vivo
# [11] = Oral bioavailability in Sprague-Dawley rat at 5.0 mg/kg, ig measured for 15 min to 72 hrs by LC-MS/MS analysis; format: ADME, organism-based; details: in vivo
# [12] = Mean residence time in Sprague-Dawley rat at 1.0 mg/kg, iv measured for 5 min to 72 hrs by LC-MS/MS analysis; format: ADME, organism-based; details: in vivo
# [13] = AUC (0 to infinity) in Sprague-Dawley rat at 5.0 mg/kg, ig measured for 15 min to 72 hrs by LC-MS/MS analysis; format: ADME, organism-based; parameters: dose 5 mg/kg, time infinity, route intragastric; details: in vivo, po
# [14] = Cmax in Sprague-Dawley rat at 5.0 mg/kg, ig measured for 15 min to 72 hrs by LC-MS/MS analysis; format: ADME, organism-based; parameters: dose 5 mg/kg, route intragastric; details: in vivo, po
# [15] = Cmax in Sprague-Dawley rat at 1.0 mg/kg, iv measured for 5 min to 72 hrs by LC-MS/MS analysis; format: ADME, organism-based; parameters: dose 1 mg/kg, route intravenous; details: in vivo
# [16] = Volume of distribution in Sprague-Dawley rat at 1.0 mg/kg, iv measured for 5 min to 72 hrs by LC-MS/MS analysis; format: ADME, organism-based; details: in vivo
# [17] = Clearance in Sprague-Dawley rat at 5.0 mg/kg, ig measured for 15 min to 72 hrs by LC-MS/MS analysis; format: ADME, organism-based; details: in vivo, po
# [18] = Cmax in Sprague-Dawley rat at 10 mg/kg, ig measured for 15 min to 72 hrs by LC-MS/MS analysis; format: ADME, organism-based; parameters: dose 10 mg/kg, route intragastric; details: in vivo, po
# [19] = Mean residence time in Sprague-Dawley rat at 2.5 mg/kg, iv measured for 5 min to 72 hrs by LC-MS/MS analysis; format: ADME, organism-based; details: in vivo
# [20] = Clearance in Sprague-Dawley rat at 2.5 mg/kg, iv measured for 5 min to 72 hrs by LC-MS/MS analysis; format: ADME, organism-based; details: in vivo
# [21] = Half life in Sprague-Dawley rat at 2.5 mg/kg, iv measured for 5 min to 72 hrs by LC-MS/MS analysis; format: ADME, organism-based; details: in vivo
# [22] = Cmax in Sprague-Dawley rat at 2.5 mg/kg, iv measured for 5 min to 72 hrs by LC-MS/MS analysis; format: ADME, organism-based; parameters: dose 2.5 mg/kg, route intravenous; details: in vivo
# [23] = Tmax in Sprague-Dawley rat at 10 mg/kg, ig measured for 15 min to 72 hrs by LC-MS/MS analysis; format: ADME, organism-based; details: in vivo, po
# [24] = Clearance in Sprague-Dawley rat at 10 mg/kg, ig measured for 15 min to 72 hrs by LC-MS/MS analysis; format: ADME, organism-based; details: in vivo, po
# [25] = Tmax in Sprague-Dawley rat at 2.5 mg/kg, iv measured for 5 min to 72 hrs by LC-MS/MS analysis; format: ADME, organism-based; details: in vivo
# [26] = AUC (0 to infinity) in Sprague-Dawley rat at 10 mg/kg, ig measured for 15 min to 72 hrs by LC-MS/MS analysis; format: ADME, organism-based; parameters: dose 10 mg/kg, time infinity, route intragastric; details: in vivo, po
# [27] = Mean residence time in Sprague-Dawley rat at 10 mg/kg, ig measured for 15 min to 72 hrs by LC-MS/MS analysis; format: ADME, organism-based; details: in vivo, po
# [28] = Volume of distribution in Sprague-Dawley rat at 10 mg/kg, ig measured for 15 min to 72 hrs by LC-MS/MS analysis; format: ADME, organism-based; details: in vivo, po
# [29] = Oral bioavailability in Sprague-Dawley rat at 10 mg/kg, ig measured for 15 min to 72 hrs by LC-MS/MS analysis; format: ADME, organism-based; details: in vivo
# [30] = Half life in Sprague-Dawley rat at 10 mg/kg, ig measured for 15 min to 72 hrs by LC-MS/MS analysis; format: ADME, organism-based; details: in vivo, po
# [31] = AUC (0 to infinity) in Sprague-Dawley rat at 2.5 mg/kg, iv measured for 5 min to 72 hrs by LC-MS/MS analysis; format: ADME, organism-based; parameters: dose 2.5 mg/kg, route intravenous, time infinity; details: in vivo
# [32] = Volume of distribution in Sprague-Dawley rat at 2.5 mg/kg, iv measured for 5 min to 72 hrs by LC-MS/MS analysis; format: ADME, organism-based; details: in vivo
SMILES,IC50 [1] [nM],IC50 [2] [nM],half-life (in vitro) [h],inhibition at 10 µM (MKN-45) [%],inhibition at 10 µM (HT-29) [%],inhibition at 10 µM [3] [%],other results
CC(C)(O)Cn1cc(-c2ccc(F)cc2)c(=O)c2c(Nc3ccc(Oc4ccnc(NC(=O)C5CC5)c4)c(F)c3)nccc21,> 30000,25.9,–,44.3,-2.6,67.4,–
CCn1cc(-c2ccc(F)cc2)c(=O)c2c(Nc3ccc(Oc4ccnc(NC(=O)C5CC5)c4)c(F)c3)nccc21,1380,15.6,–,31.9,15.8,11,Ratio IC50 (Homo sapiens): 88
O=C(Nc1cc(Oc2ccc(Nc3nccc4c3c(=O)c(-c3ccc(F)cc3)cn4CCO)cc2F)ccn1)C1CC1,10500,33.8,–,41.8,3.5,52.1,–
O=C(Nc1cc(Oc2ccc(Nc3nccc4[nH]cc(-c5ccc(F)cc5)c(=O)c34)cc2F)ccn1)C1CC1,8.8,8.1,13.2,81.8,25.5,54.6,MRT [4]: 11.4 h; AUC(0-inf) [5]: 13500 ng·h/mL; half-life [6]: 6.8 h; Tmax [7]: 7.3 h; half-life [8]: 6.4 h; Vd [9]: 1.1 L/kg; clearance [10]: 1.33 mL/min/kg; bioavailability [11]: 63%; MRT [12]: 8.5 h; AUC(0-inf) [13]: 42200 ng·h/mL; Cmax [14]: 2700 ng/mL; Cmax [15]: 1900 ng/mL; Vd [16]: 0.7 L/kg; CL/F [17]: 1.67 mL/min/kg
COc1cc2nccc(Oc3ccc(NC(=O)C4(C(=O)Nc5ccc(F)cc5)CC4)cc3)c2cc1OC [CABOZANTINIB],–,–,–,49.1,29,54.8,–
O=C(Nc1cc(Oc2ccc(Nc3nccc4[nH]cc(-c5ccc(F)cc5)c(=O)c34)cc2F)ccn1)C1CCC1,61.2,24,–,52.8,46,43.6,–
O=C(Nc1cc(Oc2ccc(Nc3nccc4[nH]cc(-c5ccc(F)cc5)c(=O)c34)cc2F)ccn1)C1CCCCC1,> 3000,9.8,1.34,55.2,8.7,72.1,Ratio IC50 (Homo sapiens): > 306
Nc1nccc(Oc2ccc(Nc3nccc4[nH]cc(-c5ccc(F)cc5)c(=O)c34)cc2F)c1Cl,68,9.8,3.16,85.7,56.2,79.1,Cmax [18]: 600 ng/mL; MRT [19]: 0.3 h; clearance [20]: 10 mL/min/kg; half-life [21]: 0.5 h; Cmax [22]: 16400 ng/mL; Tmax [23]: 2.7 h; CL/F [24]: 83.3 mL/min/kg; Tmax [25]: 1.8 min; AUC(0-inf) [26]: 2200 ng·h/mL; MRT [27]: 3 h; Vd [28]: 7.5 L/kg; bioavailability [29]: 12%; half-life [30]: 1 h; AUC(0-inf) [31]: 4500 ng·h/mL; Vd [32]: 0.4 L/kg

# Further lines, with some results ahead:
IC50 [1] [nM],IC50 [2] [nM],half-life (in vitro) [h],SMILES,inhibition at 10 µM (MKN-45) [%],inhibition at 10 µM (HT-29) [%],inhibition at 10 µM [3] [%],other results
> 3000,35,–,CC(C)(O)C(=O)Nc1cc(Oc2ccc(Nc3nccc4[nH]cc(-c5ccc(F)cc5)c(=O)c34)cc2F)ccn1,57.8,-2.9,54.3,Ratio IC50 (Homo sapiens): > 85.7
20.2,4.7,2.72,CCC(=O)Nc1cc(Oc2ccc(Nc3nccc4[nH]cc(-c5ccc(F)cc5)c(=O)c34)cc2F)ccn1,92.1,68.7,69.7,–
19.4,14.8,–,CCCC(=O)Nc1cc(Oc2ccc(Nc3nccc4[nH]cc(-c5ccc(F)cc5)c(=O)c34)cc2F)ccn1,64.6,23.5,49.7,–
38.1,21.4,–,CC(=O)Nc1cc(Oc2ccc(Nc3nccc4[nH]cc(-c5ccc(F)cc5)c(=O)c34)cc2F)ccn1,77.1,36.8,58.2,–
289,11.8,4.15,CC(O)C(=O)Nc1cc(Oc2ccc(Nc3nccc4[nH]cc(-c5ccc(F)cc5)c(=O)c34)cc2F)ccn1 (configuration not stated),67.3,47.8,56,–
58.9,9.9,7.23,O=C(CO)Nc1cc(Oc2ccc(Nc3nccc4[nH]cc(-c5ccc(F)cc5)c(=O)c34)cc2F)ccn1,63,18.5,53.6,–
26.9,14.7,–,CCCCC(=O)Nc1cc(Oc2ccc(Nc3nccc4[nH]cc(-c5ccc(F)cc5)c(=O)c34)cc2F)ccn1,62.7,-42.2,71.8,–
> 3000,28.1,–,CC(C)(C)C(=O)Nc1cc(Oc2ccc(Nc3nccc4[nH]cc(-c5ccc(F)cc5)c(=O)c34)cc2F)ccn1,62.5,-45.8,56.7,Ratio IC50 (Homo sapiens): > 107
230,17.7,–,CC(C)C(=O)Nc1cc(Oc2ccc(Nc3nccc4[nH]cc(-c5ccc(F)cc5)c(=O)c34)cc2F)ccn1,95.4,83.4,84.6,–
